Assay [1] has as its system CK1α. Put plainly: Western blot validation of CK1α degradation. In kind it is cell-based, human, mouse. To be noted: HEK293T versus AT3, 4434, CT26, 10uM, 24h, western blotting. Here is the method:
(§1) Figure 6 FPFT2216 induces the degradation of PDE6D in murine cells (A) Proteomes of CT26 cells treated with 10uM of the indicated compounds for 24h and analyzed using quantitative proteomics. Data are plotted as Log2 fold change relative to DMSO versus Log10 of p value. (B) Proteome of CT26 CRBN KO cells treated with 10uM of FPFT2216 for 24h analyzed and plotted as in (A). (C) HEK293T, CT26, AT3 and 4434 cells treated with 10uM of FPFT2216 for 24h in presence of absence of MLN4924. Lysats were analyzed using western blotting. (D) Structural representation of PDE6D with the critical Glycine 28 highlighted in red. (E) CT26, AT3 and 4434 cells transiently expressing WT or G28N mutant Flag-PDE6D treated with 10uM of FPFT2216 for 16h. (F) Docking model for FPFT-2216 (in magenta) in the binding site of mouse CRBN (in orange). H-bond interactions are shown as cyan dashes. (G) Binding model for the ternary complex formed by mouse CRBN (in orange), mouse PDE6D (in cyan) and FPFT-2216 (in magenta), showing the Gly28 loop close to the molecular glue.
(§2) Cells were lysed with SDS lysis buffer (2% SDS, 10% Glycerol, 50mM Tris pH 6.8) and boiled at 95°C for 30min. Protein concentration was measured using Pierce BCA Protein Assay Kit (ThermoFischer) following manufacturer’s recommendations. […]
Background: Immunoblotting shows a protein as a band on a membrane.

For assay [2], the system named is CT26 cells. The assay can be described thus: Quantitative multiplexed proteomics of CT26 cells treated with thalidomide derivatives. In kind it is cell-based, mouse. To be noted: 24h. Here is the method: After showing that iTAG was active in mouse cells, we explored whether more potential degrons were active in the murine context. […]2216[50] and profiled the cellular proteomes using quantitative multiplexed proteomics. […] Data are plotted as Log2 fold change relative to DMSO versus Log10 of p value. (B) Proteome of CT26 CRBN KO cells treated with 10uM of FPFT2216 for 24h analyzed and plotted as in (A). (C) HEK293T, CT26, AT3 and 4434 cells treated with 10uM of FPFT2216 for 24h in presence of absence of MLN4924. […] were analyzed using western blotting. (D) Structural representation of PDE6D with the critical […] highlighted in red. (E) CT26, AT3 and 4434 cells transiently expressing WT or […] mutant Flag-PDE6D treated with 10uM of FPFT2216 for 16h. (F) Docking model for FPFT-2216 (in magenta) in the binding site of mouse CRBN (in orange). H-bond interactions are shown as cyan dashes. (G) Binding model for the ternary complex formed by mouse CRBN (in orange), mouse PDE6D (in cyan) and FPFT-2216 (in magenta), showing the […] loop close to the molecular glue. Samples for quantitative proteomics were prepared using the […] workflow.[60] Briefly, the cell pellets were lysed in a buffer containing 150 μL 0.1 M triethylammonium bicarbonate (TEAB), 1% sodium deoxycholate (SDC), 10% isopropanol, 50mM NaCl, 5 mM tris-2-carboxyethyl phosphine (TCEP), 10 mM iodoacetamide (IAA), universal nuclease, and supplemented with protease and phosphatase inhibitors. Samples were bath sonicated for 5 min, incubated at RT for 45 min and protein concentration was measured with the Bradford Protein Assay (Biorad) according to manufacturer instructions. Aliquots containing 30 μg of total protein were used for protein digestion. The resultant peptides were labeled with a tandem mass tag (TMTpro) multiplex reagent vial (Thermo Scientific) according to the manufacturer instructions. All the TMT-labelled samples were combined in equal amounts to a single tube. The TMT-peptide mixture was acidified with 1% formic acid and the precipitated SDC was removed by centrifugation. The sample was then dried with a centrifugal vacuum concentrator. LC-MS analysis was performed on the Dionex Ultimate 3000 UHPLC system coupled with the Orbitrap Lumos mass spectrometer (Thermo Scientific). Samples were analyzed with the EASY-Spray C18 capillary column (75 μm × 50 cm, 2 μm) at 50°C. […] MS3 quantification was obtained with higher-energy collisional dissociation (HCD) fragmentation of the top 5 most abundant CID fragments isolated with synchronous precursor selection (SPS). […] The SEQUEST-HT search engine was used to analyze the acquired mass spectra in Proteome Discoverer 2.4 (Thermo Scientific) for protein identification and quantification. […]

Assay [3] concerns the target T1, PDE6D (Mus musculus, UniProt O55057+Q8C7D2).
T1 construct: endogenous in cells; host or cells: AT3, 4434, CT26 (mouse); HEK293T run as human control
The assay can be described thus: Western blot validation of PDE6D degradation. To be noted: AT3, 4434 and CT26, 10uM, 24h, western blotting. In kind it is cell-based. Here is the method: as §1, §2

The target in assay [4] is T2, Flag-PDE6D G28N mutant (Mus musculus, UniProt O55057, G28N).
T2 construct: expressed in transfected cells; host or cells: CT26, AT3 and 4434 murine cells, transient
Put plainly: Degradation of WT or G28N mutant Flag-PDE6D in murine cells. Format: cell-based. To be noted: CT26, AT3 and 4434, 10uM, 16h. Here is the method: as §1
After validating PDE6D degradation, we progressed to identify the critical degron site on the protein. We hypothesized that PDE6D binding to CRBN would require a Gly loop motif and used known structural features of IMiD degrons to map this site in PDE6D (see STAR Methods for details). […]

T2 sequence (Q8C7D2 whole entry partner): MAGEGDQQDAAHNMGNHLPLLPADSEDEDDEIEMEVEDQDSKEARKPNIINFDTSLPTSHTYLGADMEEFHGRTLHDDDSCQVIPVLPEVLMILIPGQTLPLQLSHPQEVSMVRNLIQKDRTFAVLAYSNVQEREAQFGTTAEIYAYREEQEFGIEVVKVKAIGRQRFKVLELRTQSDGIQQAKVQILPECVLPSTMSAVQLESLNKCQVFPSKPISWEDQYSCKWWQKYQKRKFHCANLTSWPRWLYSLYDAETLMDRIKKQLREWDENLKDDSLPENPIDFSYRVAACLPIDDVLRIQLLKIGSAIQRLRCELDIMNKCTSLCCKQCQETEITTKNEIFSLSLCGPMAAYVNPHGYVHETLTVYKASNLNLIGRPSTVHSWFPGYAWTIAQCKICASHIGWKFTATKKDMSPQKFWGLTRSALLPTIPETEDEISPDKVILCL
T2 sequence (Q3U1J4 2-1140 partner limits assumed): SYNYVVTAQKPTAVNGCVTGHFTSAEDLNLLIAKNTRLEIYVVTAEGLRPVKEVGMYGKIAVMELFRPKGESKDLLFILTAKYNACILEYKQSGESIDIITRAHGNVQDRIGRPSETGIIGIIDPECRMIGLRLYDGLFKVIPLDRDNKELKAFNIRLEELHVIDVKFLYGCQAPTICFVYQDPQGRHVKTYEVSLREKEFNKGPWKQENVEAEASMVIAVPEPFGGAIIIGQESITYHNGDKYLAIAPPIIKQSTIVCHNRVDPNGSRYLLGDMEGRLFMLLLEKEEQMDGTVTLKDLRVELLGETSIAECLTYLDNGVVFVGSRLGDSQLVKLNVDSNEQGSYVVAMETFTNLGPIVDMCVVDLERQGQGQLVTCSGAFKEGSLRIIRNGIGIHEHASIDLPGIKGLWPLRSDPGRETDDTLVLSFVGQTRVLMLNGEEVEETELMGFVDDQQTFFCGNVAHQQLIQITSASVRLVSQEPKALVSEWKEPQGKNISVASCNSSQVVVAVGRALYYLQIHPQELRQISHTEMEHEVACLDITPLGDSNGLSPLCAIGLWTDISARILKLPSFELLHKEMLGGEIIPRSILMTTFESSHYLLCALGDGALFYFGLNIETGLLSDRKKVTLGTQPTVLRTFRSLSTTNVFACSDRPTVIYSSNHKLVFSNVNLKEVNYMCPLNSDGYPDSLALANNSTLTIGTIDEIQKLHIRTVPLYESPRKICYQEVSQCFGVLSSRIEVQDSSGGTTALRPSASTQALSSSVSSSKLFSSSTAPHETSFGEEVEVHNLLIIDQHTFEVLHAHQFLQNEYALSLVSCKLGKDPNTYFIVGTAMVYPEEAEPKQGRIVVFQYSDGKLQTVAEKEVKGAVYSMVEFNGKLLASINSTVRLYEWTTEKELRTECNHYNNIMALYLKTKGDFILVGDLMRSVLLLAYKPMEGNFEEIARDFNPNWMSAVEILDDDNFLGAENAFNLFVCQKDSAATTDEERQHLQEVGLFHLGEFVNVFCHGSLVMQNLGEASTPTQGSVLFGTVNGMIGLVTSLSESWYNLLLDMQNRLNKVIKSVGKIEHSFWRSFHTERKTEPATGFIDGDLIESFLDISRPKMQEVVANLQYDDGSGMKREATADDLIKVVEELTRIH
T2 sequence (O55057 whole entry G28N): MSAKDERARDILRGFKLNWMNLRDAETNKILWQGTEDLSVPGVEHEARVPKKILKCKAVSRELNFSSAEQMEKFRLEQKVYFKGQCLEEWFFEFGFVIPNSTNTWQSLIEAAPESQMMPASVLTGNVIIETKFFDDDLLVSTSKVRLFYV
T1 sequence (O55057 whole entry): as the sequence (O55057 whole entry G28N) above, with N28G counted along it
T1 sequence (Q8C7D2 whole entry): as the sequence (Q8C7D2 whole entry partner) above
T1 sequence (Q3U1J4 2-1140 partner limits assumed): as the sequence (Q3U1J4 2-1140 partner limits assumed) above

Turning to `COc1cscc1-c1cn(C2CCC(=O)NC2=O)nn1` (centres unmarked) [FPFT2216], the “degradation of CK1α” value in assay [1] is listed as “only degraded in human cells”. For the same molecule, the “effect on cellular proteome” value in assay [2] (CT26, 10uM) is “strong downregulation of PDE6D, Rab28 and to a much lesser extent CK1α”. The “CRBN dependence of proteome effects” value in assay [2] (CT26 CRBN KO cells, 10uM) is listed as “CRBN dependent”. Besides, the “degradation of PDE6D” value in assay [3] was “induced the degradation of PDE6D”. Also, the “degradation of G28N mutant PDE6D” value in assay [4] is “not degraded”.

The record behind these values is article PMC10285648, “iTAG an optimized IMiD-induced degron for targeted protein degradation in human and murine cells” (iScience, 2023).
